Measurements: patent publication US6392049B1, “Process for preparing 2,4-dihydroxypyridine and 2,4-dihydroxy-3-nitropyridine” (Aventis Pharmaceuticals Inc., priority 1996, dated 2002)
pEC50, pIC50: −log10 of the molar value. Read-outs that look alike come from different tables or passages of the source.

Experiments:
A1 receptor = molecular target: T1, A1 receptor (Rattus norvegicus, UniProt P25099); experiment: A1 adenosine receptor binding, displacement of 3H-CHA, whole rat brain membranes; conditions: 3H-CHA displacement, 25° C., 60 minutes
T1 construct: using a membrane preparation of whole rat brain; from tissue; host or cells: whole rat brain membranes
T1 sequence (P25099 1-326): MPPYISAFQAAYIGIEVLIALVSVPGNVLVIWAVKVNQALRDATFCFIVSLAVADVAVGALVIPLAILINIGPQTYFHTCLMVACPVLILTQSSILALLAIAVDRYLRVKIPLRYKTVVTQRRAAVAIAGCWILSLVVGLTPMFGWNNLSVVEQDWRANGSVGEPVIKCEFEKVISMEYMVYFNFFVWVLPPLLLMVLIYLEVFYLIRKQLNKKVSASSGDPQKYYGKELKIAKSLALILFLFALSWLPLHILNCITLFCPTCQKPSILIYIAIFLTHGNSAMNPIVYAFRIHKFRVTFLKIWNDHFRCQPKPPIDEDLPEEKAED
Procedure: Non-specific binding is assessed in the presence of 1 mM theophylline.
(§1) The assays are run in glass test tubes in duplicate at 25° C. Once the membranes are added, the tubes are vortexed and incubated at 25° C. for 60 minutes (A1 assay) or 90 minutes (A2 assay) on a rotary shaker. The assay tubes are vortexed halfway through the incubation and again near the end. The assays are terminated by rapid filtration through 2.4 cm GF/B filters using a Brandel Cell Harvestor. The test tubes are washed three times with cold 50 mM tris-HCl (pH 7.7 or 7.4), with filtration being completed within 15 seconds. The damp filter circles are placed in glass scintillation vials filled with 10 ml of Aquasol II (New England Nuclear). The vials are allowed to shake overnight on a rotary shaker and are placed into a liquid scintillation analyzer for two minute counts. IC50 values for receptor binding, i.e. the concentration at which a compound of Formula I displaced the radiolabeled standard, are obtained using a curve-fitting computer program (RS/1, Bolt, Beranek and Newman, Boston, Mass.).

A2 receptor [1] = molecular target: T2, A2 receptor (Rattus norvegicus, UniProt P30543); experiment: A2 adenosine receptor binding, displacement of 3H-CGS 21680, rat brain striatum membranes; conditions: 3H-CGS 21680 displacement, rat brain striatum membranes, 25° C., 90 minutes; read-out: Adenosine Receptor Binding Activity/IC50 (nM) A2
T2 construct: using membranes from rat brain striatum; from tissue; host or cells: rat brain striatum membranes
T2 sequence (P30543 whole entry): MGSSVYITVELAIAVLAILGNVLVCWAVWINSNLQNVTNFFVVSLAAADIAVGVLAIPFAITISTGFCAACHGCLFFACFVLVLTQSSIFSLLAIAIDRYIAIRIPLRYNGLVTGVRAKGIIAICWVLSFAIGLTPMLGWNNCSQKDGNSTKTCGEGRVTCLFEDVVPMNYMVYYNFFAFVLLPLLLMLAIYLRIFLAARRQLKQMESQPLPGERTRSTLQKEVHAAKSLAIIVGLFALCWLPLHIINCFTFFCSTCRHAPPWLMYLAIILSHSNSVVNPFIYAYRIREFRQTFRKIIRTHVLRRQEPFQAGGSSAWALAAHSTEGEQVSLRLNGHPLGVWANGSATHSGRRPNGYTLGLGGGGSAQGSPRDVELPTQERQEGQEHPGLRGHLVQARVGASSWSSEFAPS
Procedure: Non-specific binding is assessed in the presence of 20 μm 2-chloroadenosine.
as §1

swine coronary arteries = experiment: In vitro vasorelaxation in isolated swine coronary arteries; type: cell-based; conditions: for IC50: Sus scrofa, read-out: Vasorelaxation in Swine Coronary Artery/IC50 (μM); for pIC50: 50% reduction in tension of rings contracted with 3 μM PGF2a, read-out: Vasorelaxation in Swine Coronary Artery/IC50
Procedure: Swine coronary arteries are obtained from a local slaughter house, dissected carefully and cleaned of fat, blood and adhering tissue. Rings approximately 2-3 mm wide are cut and transferred to water-jacketed tissue baths (10 mL) filled with warm (37° C.), oxygenated (O2/CO2:95%/5%) Krebs-Henseleit buffer and mounted on L-shaped hooks between stainless steel rods and a force transducer. […] PGF2a, before being exposed to 3 μM PGF2a.

A2 receptor [2] = conditions: background section; cited from earlier work
A1 and A2 receptors = conditions: selectivity, background section; cited from earlier work
[3] = test system: normotensive anesthetized rat; experiment: Mean arterial blood pressure and heart rate in normotensive anesthetized rat; type: in vivo; conditions: for Anesthetized Rat HR/ED25: intravenous dose lowering heart rate by 25%; for Anesthetized Rat MAP/ED25: intravenous dose lowering mean arterial pressure by 25%
Procedure: Normotensive rats are anesthetized with sodium pentobarbital (50 mg/kg, i.p.) and placed on a heated surgical table. Cannulas are inserted into the femoral artery and veined to allow the measurement of arterial pressure and to facilitate the intravenous administration of test compounds. The animals are allowed to equilibrate for 10 minutes after surgery. Mean arterial pressure is continuously measured and recorded and heart rate is monitored using the arterial pressure pulse to trigger a cardiotachometer. After baseline parameters are established and recorded, increasing doses (1, 3, 10, 30, 100, 300 and 1000 μg/kg) of the compound of Formula I to be tested are administered intravenously. Maximal changes in the cardiovascular parameters are observed after each dose of the adenosine agonist. Only one compound is administered per rat.

[4] = test system: spontaneously hypertensive rat (SHR); experiment: Oral antihypertensive activity in conscious spontaneously hypertensive rat (SHR); type: in vivo; conditions: D signifies decrease, I signifies increase
Procedure: The oral antihypertensive activity of compounds of Formula I are examined in conscious spontaneously hypertensive rats. The rats are anesthetized with sodium phenobarbitol (50 mg/kg i.p.). A telemetry transducer is implanted into the rats abdomen via midline incision. The cannula of the transducer is inserted into the abdominal aorta to allow direct measurement of arterial pressure in the conscious SHR. The transducer is secured to the abdominal wall. After recovery from surgery (minimum of seven days), the SHR are placed on a receiver plate and the transducer/transmitter is activated. Systolic, diastolic and mean arterial pressure and heart rate are recorded for 1.5 hours in the unrestrained conscious rat to establish a stable baseline. Each rat then received a single dose of the compound of Formula I to be tested, or vehicle, and changes in arterial pressure and heart rate are monitored for 20 hours and recorded.

rat adipocytes = experiment: Antilipolytic activity in rat adipocytes (in vitro lipolysis assay, glycerol production); type: cell-based; conditions: rat adipocytes, norepinephrine-stimulated; for pEC50: read-out: EC50 (50% inhibition of glycerol production)
Procedure: Adipose tissue is removed from anesthetized rats and rinsed twice in incubation medium (2.09 g sodium bicarbonate and 0.04 g EDTA, disodium salt, in 1 L Krebs buffer). Each rat (300-350g) yields approximately 4 ml of adipose tissue. The adipose tissue (35 mL) is cut into small pieces with scissors and washed with incubation medium (50 mL). The mixture is poured into the barrel of a 50 mL syringe to which is attached a short piece of clamped tubing instead of a needle. The aqueous phase is allowed to drain. A second wash with incubation medium is passed through the syringe. The tissue is added to 50 mL of collagenase solution (collagenase (90 mg), bovine serum albumin (BSA) (500 mg), and 0.1 M calcium chloride solution (1 mL), in incubation medium (50 mL)) in a 1 L bottle. The mixture is shaken in an environmental at 37 ° C. for about 60 minutes under an atmosphere of 95% oxygen/5% carbon dioxide to effect digestion of the tissue. The dispersed cells are poured through 2 layers of cheese cloth into a 100 mL plastic beaker. The undigested clumps in the cloth are rinsed once with incubation medium (20 mL). The cells in the beaker are centrifuged in 2 plastic tubes for 30 seconds at room temperature at 300 rpm. The aqueous phase is aspirated from beneath the loosely packed layer of floating fat cells and discarded. The adipocytes are gently poured into a 250 mL plastic beaker containing 100 mL of rinse solution (1 g BSA per 100 mL incubation medium). After gentle stirring the centrifugation step is repeated. Another wash with rinse solution follows. The cells are pooled and their volume is estimated with a graduated cylinder. The adipocytes are diluted in twice their volume of assay buffer (incubation medium (120 mL), BSA (1.2 g), pyruvic acid (13 mg)).
The assay is performed in 20 mL plastic scintillation vials and the total assay volume is 4.2 ml. Assay buffer (2.5 mL), diluted adipocytes (1.5 mL), and a solution of the compound to be tested (12.3 μL) adenosine agonist (12.3 μL; varying concentration) is incubated in the environmental shaker for 15 minutes, then the reaction is started with norepinephrine solution (41.2 μL) (10 nM, in a carrier solution containing water (100 mL), BSA (4 mg), and 0.1 M EDTA (20 μL))and adenosine deaminase (1 μg/ml, 41.2 μL). After sixty minutes in the shaker the reaction is terminated by putting the vials on ice. […] The hard lipid layer is removed by aspiration and the aqueous layer is assayed for glycerol (400 μL of sample). The positive control is done in the absence of any adenosine agonist, substituting water in place of the solution to be tested.

Row | pIC50 (swine coronary arteries) | Structure (SMILES) | IC50 (A1 receptor) [nM] | IC50 (A2 receptor [1]) [nM] | IC50 (swine coronary arteries) [µM] | melting point [°C] | Anesthetized Rat HR/ED25 [3] [mg/kg] | Anesthetized Rat MAP/ED25 [3] [mg/kg] | other results
1 |  | CCNC(=O)[C@H]1C[C@@H](n2cnc3c(NC(Cc4cccs4)C(C)C)ccnc32)[C@H](O)[C@@H]1O (stereo partly drawn) [Example 38, [1S-[1a,2b,3b,4a]]-4-[7-[[2-(2-thienyl)-1-isopropylethyl]amino]-3H-imidazo[4,5-b]pyridin-3-yl]-N-ethyl-2,3-dihydroxycyclopentanecarboxamide] | 5.7 | 55.5 | 0.47 | 75 to 85 |  |  | 
2 |  | Nc1nc(Nc2ccccc2)nc2c1ncn2[C@@H]1O[C@H](CO)[C@@H](O)[C@H]1O [CV-1808] |  |  |  |  |  |  | fold less potent than NECA in affinity for the A2 receptor (A2 receptor [2]): 10 fold; A2/A1 ratio (A1 and A2 receptors): 0.19
3 |  | CCNC(=O)[C@H]1C[C@@H](n2cnc3c(N[C@H](C)Cc4cccs4)ccnc32)[C@H](O)[C@@H]1O [Example 40, [1S-[1a,2b,3b,4a(S*)]]-4-[7-[[2-(2-thienyl)-1-methylethyl]amino]-3H-imidazo[4,5-b]pyridin-3-yl]-N-ethyl-2,3-dihydroxycyclopentane-carboxamide] | 9.3 | 68.8 | 283 | 155 to 160 |  |  | 
4 | 7.09 | CCNC(=O)C1CC(n2cnc3c(NCCc4cccs4)ncnc32)C(O)C1O (single isomer, unassigned; (-)) [Example 26, (−)-N^6-[(thiophen-2″-yl)ethan-2-yl]carbocyclic adenosine-5′-N-ethyl carboxamide] | 87.1 | 63.1 |  |  | >0.03 | 0.004 | SHR HR/% ([4]; single oral dose 2.5 mg/kg): 3 (I) %; SHR MAP/% ([4]; single oral dose 2.5 mg/kg): 41 (D) %; % Inhibition of glycerol production, 1 μM (rat adipocytes; 1 μM compound versus positive control): 96%; pEC50 (rat adipocytes): 7.05
5 |  | OC[C@H]1O[C@@H](n2cnc3c(N[C@@H]4CC=CC[C@H]4c4cccs4)ncnc32)[C@H](O)[C@@H]1O (relative stereo) [Example 4, N6-[trans-2-(thiophen-2-yl)cyclohex-4-en-yl]adenosine] | 1.66 | 55 | 0.73 | 105 to 110 | 0.019 | 0.013 | SHR HR/% ([4]; single oral dose 5 mg/kg): 20 (D) %; SHR MAP/% ([4]; single oral dose 5 mg/kg): 28 (D) %
6 |  | CCNC(=O)[C@H]1C[C@@H](n2cnc3c(N[C@H](C)Cc4ccc(Cl)s4)ncnc32)[C@@H]2OC(=S)O[C@@H]21 [Example 46, (2S)-2a,3a-dihydroxy-4β-[N6-[2-(5-chloro-2-thienyl)-(1R)-1-methylethyl]amino-9-adenyl]cyclopentane-1β-N-ethylcarboxamide-2,3-thiocarbonate] | 13.5 | 81 | 3.52 |  |  |  | pEC50 (rat adipocytes; Adipocyte): 8.40
7 | 4.66 | CCNC(=O)C1CC(n2cnc3c(NCCNc4nc5ccccc5s4)ncnc32)C(O)C1O (racemic) [Example 29, (±)-N^6-[2-(2′-aminobenzothia-zoly)ethyl]carbocyclic adenosine-5′-N-ethyl carboxamide] |  |  |  |  | 0.031 | 0.016 | SHR HR/% ([4]; single oral dose 5 mg/kg): 12 (D) %; SHR MAP/% ([4]; single oral dose 5 mg/kg): 18 (D) %

Row | Structure (SMILES) | pIC50 (swine coronary arteries) | IC50 (A1 receptor) [nM] | IC50 (A2 receptor [1]) [nM] | IC50 (swine coronary arteries) [µM] | melting point [°C] | Anesthetized Rat HR/ED25 [3] [mg/kg] | Anesthetized Rat MAP/ED25 [3] [mg/kg] | other results
8 | CCNC(=O)C1CC(n2cnc3c(N[C@H](C)Cc4ccc(Cl)s4)ncnc32)C(O)C1O (single isomer, unassigned; (-)) [Example 6] | 7.68 | 2.69 | 12.9 |  |  |  |  | SHR HR/% ([4]; single oral dose 1 mg/kg): 7 (I) %; SHR MAP/% ([4]; single oral dose 1 mg/kg): 18 (D) %; pEC50 (rat adipocytes): 9.12
